Laboratory results as given in PMC9596378, “Discovery and molecular basis of subtype-selective cyclophilin inhibitors” (Nature Chemical Biology, 2022).
Read-outs that look alike come from different tables or passages of the source.

Assays:
PPIL1 = biological target: T1, PPIL1 (Homo sapiens, UniProt Q9Y3C6); assay: Chymotrypsin coupled prolyl-isomerase assay; assay type: biochemical
T1 construct: PPIL1 (UniProtKB Entry Q9Y3C6: residues 1–166); made in house; host or cells: E. coli BL21(DE3)
T1 sequence (Q9Y3C6 1-166): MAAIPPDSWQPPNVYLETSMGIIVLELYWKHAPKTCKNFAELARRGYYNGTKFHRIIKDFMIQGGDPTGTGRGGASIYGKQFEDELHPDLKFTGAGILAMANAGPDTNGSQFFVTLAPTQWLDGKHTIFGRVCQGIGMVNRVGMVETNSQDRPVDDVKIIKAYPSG

CypB = biological target: T2, CypB (Homo sapiens, UniProt P23284); assay: biochemical
T2 construct: PPIB (UniProtKB Entry P23284: residues 34–216); His6 with TEV site (2BT vector leader) (N); made in house; host or cells: E. coli BL21(DE3)
T2 sequence (P23284 34-216): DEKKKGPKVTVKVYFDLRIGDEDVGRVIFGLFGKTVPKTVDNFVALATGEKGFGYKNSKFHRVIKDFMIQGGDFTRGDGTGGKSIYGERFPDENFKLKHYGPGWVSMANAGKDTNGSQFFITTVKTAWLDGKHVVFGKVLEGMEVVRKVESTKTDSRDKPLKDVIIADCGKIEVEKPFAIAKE
In short: (§1)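 5 nM Cyp, HEPES pH 7.3/NaCl/Triton buffer, 2–3 °C; cpd 5 min, chymotrypsin 25 µM 5 min, then Suc-AAPF-AMC 5 µM in LiCl/TFE. Kinetic fluorescence 330 s. Per-well rate constants, normalized, IC50 from nonlinear fit.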

CypC = biological target: T3, CypC (Homo sapiens, UniProt P45877); assay: Chymotrypsin coupled prolyl-isomerase assay; assay type: biochemical
T3 construct: PPIC (UniProtKB Entry P45877: residues 24–212); host or cells: E. coli BL21(DE3)
T3 sequence (P45877 24-212): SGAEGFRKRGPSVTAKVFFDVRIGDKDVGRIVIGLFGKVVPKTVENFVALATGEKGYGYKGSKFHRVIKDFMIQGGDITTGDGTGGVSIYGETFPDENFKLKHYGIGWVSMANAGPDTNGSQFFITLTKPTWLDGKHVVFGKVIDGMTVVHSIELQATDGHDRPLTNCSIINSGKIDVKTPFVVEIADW
In short: as §1

CypH = biological target: T4, CypH (Homo sapiens, UniProt O43447); assay: Chymotrypsin coupled prolyl-isomerase assay; assay type: biochemical
T4 construct: PPIH (UniProtKB Entry O43447: residues 1–177); His6 with TEV site (2BT vector leader) (N); made in house; host or cells: E. coli BL21(DE3)
T4 sequence (O43447 whole entry, the tested form may be a part): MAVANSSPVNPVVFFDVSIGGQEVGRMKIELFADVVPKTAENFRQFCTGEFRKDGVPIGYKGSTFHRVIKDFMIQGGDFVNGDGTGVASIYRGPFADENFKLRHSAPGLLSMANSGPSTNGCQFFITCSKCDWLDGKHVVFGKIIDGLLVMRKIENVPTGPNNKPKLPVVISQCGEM
In short: as §1

CypG = biological target: T5, CypG (Homo sapiens, UniProt Q13427); assay: Chymotrypsin coupled prolyl-isomerase assay; assay type: biochemical
T5 construct: PPIG (UniProtKB Entry Q13427: residues 1–179); His6 with thrombin site (pET28a LIC leader) (N); host or cells: E. coli BL21(DE3)
T5 sequence (Q13427 1-179): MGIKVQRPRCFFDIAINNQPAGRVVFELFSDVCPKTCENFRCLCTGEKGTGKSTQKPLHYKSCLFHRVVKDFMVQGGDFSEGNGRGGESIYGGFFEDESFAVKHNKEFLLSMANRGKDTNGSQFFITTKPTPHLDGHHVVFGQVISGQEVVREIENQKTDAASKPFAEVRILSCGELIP
In short: as §1

CypE = biological target: T6, CypE (Homo sapiens, UniProt Q9UNP9); assay: Chymotrypsin coupled prolyl-isomerase assay; assay type: biochemical
T6 construct: PPIE (UniProtKB Entry Q9UNP9: residues 131–301); host or cells: E. coli BL21(DE3)
T6 sequence (Q9UNP9 131-301): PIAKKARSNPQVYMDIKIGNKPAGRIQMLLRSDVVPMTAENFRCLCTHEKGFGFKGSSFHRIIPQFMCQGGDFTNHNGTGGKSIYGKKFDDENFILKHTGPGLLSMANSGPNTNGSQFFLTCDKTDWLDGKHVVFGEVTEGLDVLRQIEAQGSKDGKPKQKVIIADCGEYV
In short: as §1

CypA = biological target: T7, CypA (Homo sapiens, UniProt P62937); assay: Chymotrypsin coupled prolyl-isomerase assay; assay type: biochemical
T7 construct: PPIA (UniProtKB Entry P62937: residues 1–165); made in house; host or cells: E. coli BL21(DE3)
T7 sequence (P62937 whole entry, the tested form may be a part): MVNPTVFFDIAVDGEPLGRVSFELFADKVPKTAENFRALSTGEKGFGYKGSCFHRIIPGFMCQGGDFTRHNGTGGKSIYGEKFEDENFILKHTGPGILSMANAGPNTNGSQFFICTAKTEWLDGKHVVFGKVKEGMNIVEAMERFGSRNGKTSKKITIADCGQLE
In short: as §1

[1] = wild-type PPIL1, read-out: Wild-Type Cyclophilin Prolyl Isomerase Inhibition IC50 Values, PPIL1
[2] = wild-type CypB, read-out: Wild-Type Cyclophilin Prolyl Isomerase Inhibition IC50 Values, CypB
[3] = wild-type CypC, read-out: Wild-Type Cyclophilin Prolyl Isomerase Inhibition IC50 Values, CypC
[4] = wild-type CypH, read-out: Wild-Type Cyclophilin Prolyl Isomerase Inhibition IC50 Values, CypH
[5] = wild-type CypG, read-out: Wild-Type Cyclophilin Prolyl Isomerase Inhibition IC50 Values, CypG
[6] = wild-type CypE, read-out: Wild-Type Cyclophilin Prolyl Isomerase Inhibition IC50 Values, CypE
[7] = wild-type CypA, read-out: Wild-Type Cyclophilin Prolyl Isomerase Inhibition IC50 Values, CypA
[8] = prolyl-isomerase inhibition, 5 nM cyclophilin, read-out: IC50 CypC
[9] = prolyl-isomerase inhibition, 5 nM cyclophilin, read-out: IC50 CypH
[10] = prolyl-isomerase inhibition, 5 nM cyclophilin, read-out: IC50 CypG
[11] = Independent replicate 1, read-out: IC50 PPIL1
[12] = Independent replicate 2, read-out: IC50 PPIL1
[13] = Independent replicate 3, read-out: IC50 PPIL1
[14] = Independent replicate 4, read-out: IC50 PPIL1
[15] = prolyl-isomerase inhibition, 5 nM cyclophilin, read-out: IC50 PPIL1
[16] = CypB (comparator for CypB E121S), read-out: Mutant Cyclophilin Prolyl Isomerase Inhibition IC50 Values, CypB
[17] = Independent replicate 2, read-out: IC50 CypB
[18] = Independent replicate 3, read-out: IC50 CypB
[19] = Independent replicate 4, read-out: IC50 CypB
[20] = prolyl-isomerase inhibition, 5 nM cyclophilin, read-out: IC50 CypB
[21] = prolyl-isomerase inhibition, read-out: IC50 CypB
[22] = Independent replicate 1, read-out: IC50 CypC
[23] = Independent replicate 2, read-out: IC50 CypC
[24] = Independent replicate 3, read-out: IC50 CypC
[25] = Independent replicate 4, read-out: IC50 CypC
[26] = Independent replicate 1, read-out: IC50 CypH
[27] = Independent replicate 2, read-out: IC50 CypH
[28] = Independent replicate 3, read-out: IC50 CypH
[29] = Independent replicate 4, read-out: IC50 CypH
[30] = Independent replicate 1, read-out: IC50 CypG
[31] = Independent replicate 2, read-out: IC50 CypG
[32] = Independent replicate 3, read-out: IC50 CypG
[33] = Independent replicate 4, read-out: IC50 CypG
[34] = Independent replicate 1, read-out: IC50 CypE
[35] = Independent replicate 2, read-out: IC50 CypE
[36] = Independent replicate 3, read-out: IC50 CypE
[37] = Independent replicate 4, read-out: IC50 CypE
[38] = Independent replicate 2, read-out: IC50 CypA
[39] = Independent replicate 3, read-out: IC50 CypA
[40] = Independent replicate 4, read-out: IC50 CypA
[41] = prolyl-isomerase inhibition, 5 nM cyclophilin, read-out: IC50 CypA

SMILES: NCCCc1ccc(-c2ccc(C[C@@H]3NC(=O)[C@]4(Cc5ccccc5)CCCN(C4)C(=O)/C=C/C(=O)NCC[C@@H](C(=O)NCCOCCN)NC(=O)Cc4ccccc4CNC3=O)cc2)cc1 [Compound B32]
- IC50 (PPIL1; [1]): 2 µM
- IC50 (CypB; [2]): 3000 nM
- IC50 (CypC; [3]): 1.2 µM
- IC50 (CypH; [4]): > 50 µM
- IC50 (CypG; [5]): 11 µM
- IC50 (CypE; [6]): 7000 nM
- IC50 (CypA; [7]): 8000 nM

SMILES: C[N+]1=C(C=CC=CC=C2N(CCCCCC(=O)NCCNC(=O)C3CCNC(=O)C=CC(=O)N4CCCC(Cc5ccccc5)(C4)C(=O)NC(Cc4ccc(-c5ccc(CC(C(=O)O)C(=O)O)cc5)cc4)C(=O)NCc4ccccc4CC(=O)N3)c3ccccc3C2(C)C)C(C)(C)c2ccccc21 (stereo not drawn) [Compound B52-Cy5]
- IC50 (PPIL1; [1]): 4 µM
- IC50 (CypB; [2]): 400 nM
- IC50 (CypC; [8]): ~5 µM
- IC50 (CypC; [3]): 5 µM
- IC50 (CypH; [9]): ~10 µM
- IC50 (CypH; [4]): 10 µM
- IC50 (CypG; [10]): ~10 µM
- IC50 (CypG; [5]): 10 µM
- IC50 (CypE; [6]): 1000 nM
- IC50 (CypA; [7]): 190 nM

SMILES: NCCOCCNC(=O)[C@@H]1CCNC(=O)/C=C/C(=O)N2CCC[C@](Cc3ccccc3)(C2)C(=O)N[C@@H](Cc2ccc(-c3ccc(CC(C(=O)O)C(=O)O)cc3)cc2)C(=O)NCc2ccccc2CC(=O)N1 [Compound B52]
- IC50 (PPIL1; [11]): 5 ± 2 µM
- IC50 (PPIL1; [12]): 9 ± 3 µM
- IC50 (PPIL1; [13]): 6 ± 2 µM
- IC50 (PPIL1; [14]): 5 ± 2 µM
- IC50 (PPIL1; [15]): 6 ± 2 µM
- IC50 (PPIL1; prolyl-isomerase inhibition, read-out: IC50 PPIL1): 6 µM
- IC50 (PPIL1; [1]): 6 µM
- IC50 (CypB; [16]): 200 nM
- IC50 (CypB; Independent replicate 1, read-out: IC50 CypB): 200 ± 50 nM
- IC50 (CypB; [17]): 190 ± 30 nM
- IC50 (CypB; [18]): 210 ± 40 nM
- IC50 (CypB; [19]): 200 ± 100 nM
- IC50 (CypB; [20]): 210 nM
- IC50 (CypB; [21]): 210 nM
- IC50 (CypB; [2]): 210 nM
- IC50 (CypC; [22]): > 100 µM
- IC50 (CypC; [23]): > 100 µM
- IC50 (CypC; [24]): > 100 µM
- IC50 (CypC; [25]): > 100 µM
- IC50 (CypC; [8]): > 100 µM
- IC50 (CypC; prolyl-isomerase inhibition, read-out: IC50 CypC): > 100 µM
- IC50 (CypC; [3]): > 100 µM
- IC50 (CypH; [26]): > 100 µM
- IC50 (CypH; [27]): > 100 µM
- IC50 (CypH; [28]): > 100 µM
- IC50 (CypH; [29]): > 100 µM
- IC50 (CypH; [9]): > 100 µM
- IC50 (CypH; prolyl-isomerase inhibition, read-out: IC50 CypH): > 100 µM
- IC50 (CypH; [4]): > 100 µM
- IC50 (CypG; [30]): ~80 µM
- IC50 (CypG; [31]): > 100 µM
- IC50 (CypG; [32]): ~80 µM
- IC50 (CypG; [33]): > 100 µM
- IC50 (CypG; [10]): > 100 µM
- IC50 (CypG; prolyl-isomerase inhibition, read-out: IC50 CypG): > 100 µM
- IC50 (CypG; [5]): > 100 µM
- IC50 (CypE; [34]): 210 ± 80 nM
- IC50 (CypE; [35]): 400 ± 100 nM
- IC50 (CypE; [36]): 300 ± 100 nM
- IC50 (CypE; [37]): 360 ± 70 nM
- IC50 (CypE; [6]): 310 nM
- IC50 (CypA; [38]): 900 ± 100 nM
- IC50 (CypA; [39]): 900 ± 300 nM
- IC50 (CypA; [40]): 1400 ± 500 nM
- IC50 (CypA; [41]): 1100 nM

SMILES: C[N+]1=C(C=CC=CC=C2N(CCCCCC(=O)NCCNC(=O)C3CCNC(=O)C=CC(=O)N4CCCC(Cc5ccccc5)(C4)C(=O)NC(Cc4ccc(-c5ccc(C(CC(=O)O)CC(=O)O)cc5)cc4)C(=O)NCc4ccccc4CC(=O)N3)c3ccccc3C2(C)C)C(C)(C)c2ccccc21 (stereo not drawn) [Compound B53-Cy5]
- IC50 (PPIL1; [1]): > 2 µM
- IC50 (CypB; [20]): ~1500 nM
- IC50 (CypB; [2]): 1500 nM
- IC50 (CypC; [3]): > 2 µM
- IC50 (CypH; [4]): > 2 µM
- IC50 (CypG; [5]): > 2 µM
- IC50 (CypE; [6]): 1100 nM
- IC50 (CypA; [7]): 300 nM

SMILES: NCCOCCNC(=O)[C@@H]1CCNC(=O)/C=C/C(=O)N2CCC[C@](Cc3ccccc3)(C2)C(=O)N[C@@H](Cc2ccc(-c3ccc(C(CC(=O)O)CC(=O)O)cc3)cc2)C(=O)NCc2ccccc2CC(=O)N1 [Compound B53]
- IC50 (PPIL1; [11]): ~30 µM
- IC50 (PPIL1; [12]): > 50 µM
- IC50 (PPIL1; [13]): > 50 µM
- IC50 (PPIL1; [14]): > 50 µM
- IC50 (PPIL1; [15]): > 50 µM
- IC50 (PPIL1; [1]): > 50 µM
- IC50 (CypB; [16]): 500 nM
- IC50 (CypB; [17]): 1600 ± 600 nM
- IC50 (CypB; [18]): 1100 ± 500 nM
- IC50 (CypB; [19]): 1300 ± 800 nM
- IC50 (CypB; [20]): 1100 nM
- IC50 (CypB; [21]): 1100 nM
- IC50 (CypB; [2]): 1100 nM
- IC50 (CypC; [22]): > 50 µM
- IC50 (CypC; [23]): > 50 µM
- IC50 (CypC; [24]): > 50 µM
- IC50 (CypC; [25]): > 50 µM
- IC50 (CypC; [8]): > 50 µM
- IC50 (CypC; [3]): > 50 µM
- IC50 (CypH; [26]): > 50 µM
- IC50 (CypH; [27]): > 50 µM
- IC50 (CypH; [28]): > 50 µM
- IC50 (CypH; [29]): > 50 µM
- IC50 (CypH; [9]): > 50 µM
- IC50 (CypH; [4]): > 50 µM
- IC50 (CypG; [30]): ~50 µM
- IC50 (CypG; [31]): > 50 µM
- IC50 (CypG; [32]): > 50 µM
- IC50 (CypG; [33]): > 50 µM
- IC50 (CypG; [10]): > 50 µM
- IC50 (CypG; [5]): > 50 µM
- IC50 (CypE; [34]): 600 ± 300 nM
- IC50 (CypE; [35]): 900 ± 300 nM
- IC50 (CypE; [36]): 600 ± 200 nM
- IC50 (CypE; [37]): 1100 ± 600 nM
- IC50 (CypE; [6]): 800 nM
- IC50 (CypA; Independent replicate 1, read-out: IC50 CypA): 3000 ± 2000 nM
- IC50 (CypA; [38]): 3000 ± 1000 nM
- IC50 (CypA; [39]): 4000 ± 2000 nM
- IC50 (CypA; [40]): 4000 ± 1000 nM
- IC50 (CypA; [41]): 3400 nM
